By IC50 is commonly meant the concentration that gives 50% inhibition. Higher therefore signals weaker potency in that assay.

The record followed here is patent US20210221817A1, “NOVEL HETEROAROMATIC COMPOUNDS AS POTENT MODULATORS OF THE HIPPO-YAP SIGNALING PATHWAY LATS1/2 KINASES” (Nivien Therapeutics Compny, priority 2018, published 2021).

SMILES strings stand for the structures.

For test [1], the system named is YAP phosphorylation in PANC1 cells. The experiment in a line: YAP phosphorylation in PDAC PANC1 cells (FIG. 1). It counts as cell-based. The following applies: 48 h; for overall YAP levels / p-YAP levels (YAP phosphorylation): 5 μM and 25 μM. How it is done: FIG. 1 is an image showing that the LATS1/2 inhibitors of the invention reduce YAP phosphorylation in PDAC PANC1 cells in a dose-dependent manner. FIG. 1 consists of two columns. On the left: the cells were treated with control and 5 μM of each of the compounds of the invention. Control in lane “C.” In lane “1” is 4-(6-(4-(2-morpholinoethoxy)phenyl)imidazo[1,2-b]pyridazin-3-yl)benzamide (compound 1). In lane “2” is 4-(6-(3-aminopiperidin-1-yl)imidazo[1,2-b]pyridazin-3-yl)benzamide (compound 3). In lane “4” is 4-(6-(4-aminopiperidin-1-yl)imidazo[1,2-b]pyridazin-3-yl)benzamide (compound 4). In lane “6” is 4-(6-(piperazin-1-yl)imidazo[1,2-b]pyridazin-3-yl)benzamide (compound 2). In lane “7” is 4-(4-(4-(4-chlorophenyl)piperidin-4-yl)phenyl)-3-methyl-1H-pyrazolo[4,3-c]pyridine (compound 5).
(§1) On the left: the cells were treated with control and 25 μM of each of the compounds of the invention. Control in lane “C.” In lane “1” is 4-(6-(4-(2-morpholinoethoxy)phenyl)imidazo[1,2-b]pyridazin-3-yl)benzamide (compound 1). In lane “2” is 4-(6-(3-aminopiperidin-1-yl)imidazo[1,2-b]pyridazin-3-yl)benzamide (compound 3). In lane “4” is 4-(6-(4-aminopiperidin-1-yl)imidazo[1,2-b]pyridazin-3-yl)benzamide (compound 4). In lane “6” is 4-(6-(piperazin-1-yl)imidazo[1,2-b]pyridazin-3-yl)benzamide (compound 2). In lane “7” is 4-(4-(4-(4-chlorophenyl)piperidin-4-yl)phenyl)-3-methyl-1H-pyrazolo[4,3-c]pyridine (Compound 5).
(§2) YAP is stained for Yes-associated protein; p-YAP is stained for phosphorylated Yes-associated protein; GAPDH is a standard protein loading control.

In test [2] the test system is ABCG2 transcription in PANC1 cells. The experiment in a line: ABCG2 transcription in PDAC PANC1 cells (FIG. 2). It counts as cell-based. The following applies: 25 μM, 48-hour treatment. How it is done: FIG. 2 is an image showing that the LATS1/2 inhibitors of the invention reduce transcription of ABCG2, a critical multidrug efflux transporter, in PDAC PANC1 cells. The y-axis is the normalized transcription level of ABCG2. The bar labeled ABCG2_control represents PANC1 cells that received no treatment. The bar labeled ABCG2_201 represents PANC1 cells treated with 4-(6-(4-(2-morpholinoethoxy)phenyl)imidazo[1,2-b]pyridazin-3-yl)benzamide (compound 1) at 25 μM. The bar labeled ABCG2_206 represents cells treated with 4-(6-(piperazin-1-yl)imidazo[1,2-b]pyridazin-3-yl)benzamide (compound 2) 25 μM.

The target of test [3] is T1, LATS1/2.
T1 construct: LATS1 (amino acids 589-1130; ThermoFisher, PV6363), LATS2 (amino acids 488-1080; fused on or other part: GST tag, inferred from the LanthaScreen Eu-anti-GST antibody and the ThermoFisher products
Nature of the test: TR-FRET LanthaScreen binding assay. The settings on record: LATS1 (aa 589-1130), LATS2 (aa 488-1080), kinase tracer 236. How it is done: IC50 scores were determined using a TR-FRET LanthaScreen binding assay using LATS1 (amino acids 589-1130; ThermoFisher, PV6363), LATS2 (amino acids 488-1080; ThermoFisher, PV6366); kinase tracer 236 (ThermoFisher, PV5592); LanthaScreen Eu-anti-GST (ThermoFisher, PV3189); 5× kinase buffer A (ThermoFisher, PV6135); low-volume 384-well plate format.

Test [4] concerns PANC1 cells. The experiment in a line: Killing of PANC1 cells observed in the FIG. 1 experiment. It counts as cell-based. The settings on record: higher dose (25 μM). How it is done:
as §1, §2

On to `NC(=O)c1ccc(-c2cnc3ccc(-c4ccc(OCCN5CCOCC5)cc4)nn23)cc1` [Compound 1, 4-(6-(4-(2-Morpholinoethoxy)phenyl)imidazo[1,2-b]pyridazin-3-yl)benzamide], for which, in test [1], the “overall YAP levels” value was “without impacting overall YAP levels” and the “p-YAP levels (YAP phosphorylation)” value is “reduce p-YAP levels”. Further, the ABCG2 transcription levels entry in test [2] is listed as “reduce ABCG2 transcription levels”. Further, in test [3], the IC50 fell in the range of 0.01 to 1 µM.

In the case of `NC(=O)c1ccc(-c2cnc3ccc(N4CCNCC4)nn23)cc1` [Compound 2, 4-(6-(piperazin-1-yl)imidazo[1,2-b]pyridazin-3-yl)benzamide], in test [1], the “overall YAP levels” value is on record as “without impacting overall YAP levels” and the “p-YAP levels (YAP phosphorylation)” value was “reduce p-YAP levels”. Moreover, in test [2], the ABCG2 transcription levels entry is “reduce ABCG2 transcription levels”. For the same compound, the IC50 in test [3] was in the range of 0.0001 to 0.05 µM.

In test [3], `NC(=O)c1ccc(-c2cnc3ccc(N4CCCC(N)C4)nn23)cc1` (stereo not shown) [Compound 3, 4-(6-(3-Aminopiperidin-1-yl)imidazo[1,2-b]pyridazin-3-yl)benzamide] had an IC50 of 0.0001 to 0.05 µM.

On to `NC(=O)c1ccc(-c2cnc3ccc(N4CCC(N)CC4)nn23)cc1` [Compound 4, 4-(6-(4-Aminopiperidin-1-yl)imidazo[1,2-b]pyridazin-3-yl)benzamide], for which the IC50 in test [3] is 0.0001 to 0.05 µM.

In the case of `Cc1n[nH]c2ccnc(-c3ccc(C4(c5ccc(Cl)cc5)CCNCC4)cc3)c12` [Compound 5, 4-(4-(4-(4-chlorophenyl)piperidin-4-yl)phenyl)-3-methyl-1H-pyrazolo[4,3-c]pyridine], in test [4], the “killing of PANC1 cells at the higher dose” value is “killed all PANC1 cells”. Further, the “p-YAP levels at the lower dose” value in test [1] (lower dose (5 μM)) is “reduced p-YAP levels”. In addition, the 50% inhibitory concentration (IC50) in test [3] was 0.0001 to 0.05 µM.
